Earlier results in US20010041964A1, “PHARMACOKINETIC-BASED DRUG DESIGN TOOL AND METHOD” (priority 1998, published 2001).

Experiments:
[1] = not given; remark: listed apart in the source
[2] = not given; remark: listed apart in the source
[3] = system: rabbit intestinal tissue (duodenum, jejunum, ileum, colon); details: donor concentration per compound; for Pe (cm/s) Colon: rabbit colon; for Pe (cm/s) Duodenum: rabbit duodenum; for Pe (cm/s) Ileum: rabbit ileum; for Pe (cm/s) Jejunum: rabbit jejunum
[4] = oral, human
intestinal transport = details: permeability standard

Bioavailability of fasted patients in clinical trials (fasted patients, Phase I studies)	Cmax (mcg/ml), Clinical 1505a (human clinical study 1505a)	Tmax (hrs), Clinical 1505a (human clinical study 1505a)	Cmax (mcg/ml), Clinical 1505b (human clinical study 1505b)	Tmax (hrs), Clinical 1505b (human clinical study 1505b)	In vivo biotransformation [1]	Absorption ([1]; in vivo)	k12 ([2]; Appendix 2, mass-volume model)	k21 ([2]; Appendix 2, mass-volume model)	k_elim ([2]; Appendix 2, mass-volume model)	Plasma Kinetics Fluid Volume ([2]; Table 11)	Plasma Kinetics k12 ([2]; Table 11)	Plasma Kinetics k21 ([2]; Table 11)	Plasma Kinetics kelim ([2]; Table 11)	Pe (cm/s) Colon [3]	Pe (cm/s) Duodenum [3]	Pe (cm/s) Ileum [3]	Pe (cm/s) Jejunum [3]	Bioavailability in humans when orally administered [4]	Transport mechanism (intestinal transport)	SMILES
3-20%	0.55 µg/mL	1.43 h	0.59 µg/mL	1.43 h	no in vivo biotransformation	poorly absorbed	k12 = .839	k21 = .67	k_elim = .161	76,800 ml	0.839	0.670	0.161							Nc1nc2c(ncn2COC(CO)CO)c(=O)[nH]1.[Na] [Gancyclovir, 9-(1,3-dihydroxy-2-propoxymethyl)guanine, monosodium salt]
														3.85e-06 cm/s	3e-07 cm/s	2.91e-06 cm/s	1.31e-06 cm/s			C[C@]12CCC(=O)C=C1CC[C@@H]1[C@@H]2[C@@H](O)C[C@@]2(C)[C@H]1CC[C@]2(O)C(=O)CO [hydrocortisone]
														5.53e-06 cm/s	1.73e-06 cm/s	4.02e-06 cm/s	3.54e-06 cm/s	approximately 10%	Passive Paracellular	OC[C@@H](O)[C@@H](O)[C@H](O)[C@H](O)CO [mannitol]
														9.28e-06 cm/s	4.55e-06 cm/s	1.45e-05 cm/s	1.02e-05 cm/s		Carrier-mediated Influx	O=C[C@H](O)[C@@H](O)[C@H](O)[C@H](O)CO [D-glucose]
